Laboratory results taken from publication PMC3409642 (Pharmaceutical research, 2012).
Several values for one entry are separate records, joined by “and”; a condition that tells them apart may be missing. Equal entries are not always repeated.

Molecular target: T1, UGT1A9 (Homo sapiens, UniProt O60656)
T1 sequence (O60656 26-530): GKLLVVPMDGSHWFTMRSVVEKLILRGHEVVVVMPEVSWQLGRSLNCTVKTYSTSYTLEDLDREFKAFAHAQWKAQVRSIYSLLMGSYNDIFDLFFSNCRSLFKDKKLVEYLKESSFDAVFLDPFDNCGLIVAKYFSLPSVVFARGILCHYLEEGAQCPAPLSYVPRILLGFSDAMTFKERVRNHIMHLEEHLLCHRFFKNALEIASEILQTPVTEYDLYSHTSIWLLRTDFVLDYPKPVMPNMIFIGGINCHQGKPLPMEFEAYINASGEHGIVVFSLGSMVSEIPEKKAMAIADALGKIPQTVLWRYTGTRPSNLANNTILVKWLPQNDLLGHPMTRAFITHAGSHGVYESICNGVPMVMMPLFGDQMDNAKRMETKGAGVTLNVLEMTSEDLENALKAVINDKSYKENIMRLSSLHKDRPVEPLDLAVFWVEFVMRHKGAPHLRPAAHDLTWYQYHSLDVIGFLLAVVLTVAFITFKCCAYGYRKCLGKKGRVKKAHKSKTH
Assay: Kinetic profiling of glucuronidation by expressed human UGT1A9
Settings: for Log (CLint) (Actual): log of experimental CLint (μl/mg/min)

SMILES	Log (CLint) (Actual)	other results
O=C(CCc1ccc(O)cc1)c1c(O)cc(O)cc1O [7.a, Phloretin]	2.87	Log (CLint) (Actual) (listed as 7.b): 3.17
N#C/C(=C\c1ccc(O)c(O)c1)C(=O)NCc1ccccc1 [23.a, Tyrphostin B42]		Vmax (pH 7.4): 3677 pmol/mg/min and 2008 pmol/mg/min
O=c1cc(-c2ccc(O)c(O)c2)oc2cc(O)ccc12 [41.a, 7,3′,4′-Trihydroxyflavone]	3.08	Log (CLint) (Actual) (listed as 41.b): 2.48; Log (CLint) (Actual) (listed as 41.c): 2.11
O=c1cc(-c2ccc(O)c(O)c2)oc2cc(O)cc(O)c12 [56.a, Luteolin]	3.58	Log (CLint) (Actual) (listed as 56.b): 3.32
COc1cc(-c2oc3cc(O)ccc3c(=O)c2O)cc(OC)c1OC [67.a, 3,7-Dihydroxy-3′,4′,5′-trimethoxyflavone]	3.66	
O=c1c(O)c(-c2ccccc2)oc2cc(O)ccc12 [68.a, 3,7-Dihydroxyflavone]	4.32	Log (CLint) (Actual) (listed as 68.b): 3.13
COc1ccc(-c2oc3cc(O)ccc3c(=O)c2O)cc1OC [69.a, 3,7-Dihydroxy-3′,4′-dimethoxyflavone]		Log (CLint) (Actual) (listed as 69.b): 1.00
O=c1c(O)c(-c2ccc(O)c(O)c2)oc2cc(O)ccc12 [84.a, Fisetin]	3.38	Log (CLint) (Actual) (listed as 84.b): 3.55; Log (CLint) (Actual) (listed as 84.c): 3.49
O=c1c(O)c(-c2ccc(O)cc2)oc2cc(O)cc(O)c12 [88.a, Kaempferol]	3.78	Log (CLint) (Actual) (listed as 88.b): 2.34
O=c1c(O)c(-c2cc(O)c(O)c(O)c2)oc2cc(O)cc(O)c12 [90.a, Myricetin]	2.90	Log (CLint) (Actual) (listed as 90.b): 3.36; Log (CLint) (Actual) (listed as 90.c): 3.69
O=c1c(O)c(-c2ccc(O)c(O)c2)oc2cc(O)cc(O)c12 [91.a, Quercetin]	3.97	Log (CLint) (Actual) (listed as 91.b): 3.32; Log (CLint) (Actual) (listed as 91.c): 3.65
O=c1c(O)c(-c2ccc(O)cc2)oc2cc(O)ccc12 [92.a, Resokaempferol]	3.86	Log (CLint) (Actual) (listed as 92.b): 2.63
COc1cc(-c2oc3cc(O)cc(O)c3c(=O)c2O)cc(OC)c1O [94.a, Syringetin]	3.87	Log (CLint) (Actual) (listed as 94.b): 2.26
O=C(O)/C=C/c1ccc(O)c(O)c1 [97.a, Caffeic Acid]	1.04	Log (CLint) (Actual) (listed as 97.b): 0.30
Nc1ccc(C(=O)O)c(O)c1 [aminosalicylic acid, reference compound]		glucuronide metabolite formation on incubation with UGT1A9 (non-substrate) (incubating compound with UGT1A9): no metabolite can be detected
Oc1cc(O)c2c(c1)O[C@H](c1cc(O)c(O)c(O)c1)[C@H](O)C2 [compound 2, (−)-Epigallocatechin]	1.58	
O=C(/C=C/c1ccccc1O)c1ccccc1 [compound 3, 2-Hydroxychalcone]	3.38	
O=C(/C=C/c1ccc(O)cc1)c1ccccc1 [compound 4, 4-Hydroxychalcone]	1.53	
O=C(/C=C/c1ccccc1)c1ccc(O)cc1 [compound 6, 4′-Hydroxychalcone]	2.29	
O=c1ccoc2cc(O)ccc12 [compound 8, 7-Hydroxychromone]	0.91	

SMILES	Log (CLint) (Actual)	other results
O=c1oc2cc(O)ccc2c(-c2ccccc2)c1-c1ccccc1 [compound 9, 3,4-Diphenyl-7-hydroxycoumarin]	1.61	
Cc1cc(=O)oc2cc(O)ccc12 [compound 10, 4-Methylumbelliferone]	2.48	
Cc1ccc2oc(=O)cc(O)c2c1 [compound 11, 4-Hydroxy-6-methylcoumarin]	0.59	
COc1cc2oc(=O)cc(-c3ccccc3)c2cc1O [compound 12, 6-Hydroxy-7-methoxyl-4-phenylcoumarin]	1.07	
CC(=O)CC(c1ccccc1)c1c(O)c2cccc(O)c2oc1=O (centres unmarked) [compound 13, 8-Hydroxywarfarin]	1.40	
COc1cc2ccc(=O)oc2cc1O [compound 14, Scopoletin]	2.28	
COc1cc(/C=C/C(=O)CC(=O)/C=C/c2ccc(O)c(OC)c2)ccc1O [compound 15, Curcumin]	1.74	
COc1cc(/C=C/C(O)=C/C(=O)/C=C/c2ccc(O)cc2)ccc1O [compound 16, Demethoxycurcumin]	1.14	
O=C(/C=C/c1ccc(O)cc1)CC(=O)/C=C/c1ccc(O)cc1 [compound 17, Bisdemethoxycurcumin]	0.90	
CC/C(=C(\c1ccc(O)cc1)c1ccc(OCCNC)cc1)c1ccccc1 [compound 19, Endoxifen]	0.82	
O=C1OC[C@H](Cc2cccc(O)c2)[C@H]1Cc1cccc(O)c1 [compound 20, Enterolactone]	1.96	
O=C(c1ccc(OCCN2CCCCC2)cc1)c1c(-c2ccc(O)cc2)sc2cc(O)ccc12 [compound 22, Raloxifene, reference compound]	1.31	
O=C1C[C@@H](c2ccc(O)cc2)Oc2cc(O)cc(O)c21 [compound 27, Narigenin]	3.18	Km (human, expressed human UGT1A9 (Supersomes), pH 7.4): 3.34 µM
O=c1cc(-c2ccccc2O)oc2ccccc12 [compound 28, 2′-Hydroxyflavone]	2.27	
COc1ccc(-c2oc3cc(O)cc(O)c3c(=O)c2OC)cc1O [compound 29, 3,4′-Dimethoxy-5,7,3′-trihydroxyflavone]	3.66	
COc1ccc(-c2oc3cc(O)cc(O)c3c(=O)c2OC)cc1OCc1ccccc1 [compound 30, 3′-Benzyloxy-5,7-dihydroxy-3,4′-dimethoxyflavone]	3.22	
O=c1cc(-c2cccc(O)c2)oc2ccccc12 [compound 31, 3′-Hydroxyflavone]	2.66	
O=c1cc(-c2ccc(O)cc2)oc2ccccc12 [compound 32, 4′-Hydroxyflavone]	1.83	
COc1cc(-c2cc(=O)c3c(O)cc(O)cc3o2)cc(OC)c1OC [compound 33, 5,7-Dihydroxy-3′,4′,5′-trimethoxyflavone]	2.93	
O=c1cc(-c2ccc(O)c(O)c2)oc2ccc(O)cc12 [compound 35, 6,3′,4′-Trihydroxyflavone]	3.54	

SMILES	Log (CLint) (Actual)	other results
O=c1cc(-c2ccccc2)oc2cc(O)c(O)cc12 [compound 37, 6,7-Dihydroxyflavone]	2.96	
O=c1cc(-c2ccccc2)oc2ccc(O)cc12 [compound 38, 6-Hydroxyflavone]	1.53	
COc1c(O)cc2oc(-c3ccc(O)c(O)c3)cc(=O)c2c1O [compound 39, 6-Methoxyluteolin]	3.22	
O=c1cc(-c2ccccc2O)oc2cc(O)cc(O)c12 [compound 40, 5,7,2′-Trihydroxyflavone]	3.57	
O=c1cc(-c2ccccc2O)oc2cc(O)ccc12 [compound 42, 7,2′-Dihydroxyflavone]	2.77	
O=c1cc(-c2cccc(O)c2)oc2cc(O)ccc12 [compound 43, 7,3′-Dihydroxyflavone]	2.74	
COc1ccccc1-c1cc(=O)c2ccc(O)cc2o1 [compound 44, 7-Hydroxy-2′-methoxyflavone]	3.00	
Cc1c(-c2ccccc2)oc2cc(O)ccc2c1=O [compound 45, 7-Hydroxy-3-methylflavone]	3.30	
COc1ccc(-c2cc(=O)c3ccc(O)cc3o2)cc1 [compound 47, 7-Hydroxy-4′-methoxyflavone]	2.36	
O=c1cc(-c2ccccc2)oc2cc(O)ccc12 [compound 49, 7-Hydroxyflavone]	3.13	
COc1c(O)cc(O)c2c(=O)cc(-c3ccccc3)oc12 [compound 58, Wogonin]	3.60	
O=c1c(O)c(-c2ccccc2O)oc2ccccc12 [compound 59, 3,2′-Dihydroxyflavone]	1.89	
O=c1c(O)c(-c2cccc(O)c2)oc2ccccc12 [compound 60, 3,3′-Dihydroxyflavone]	4.44	
O=c1c(O)c(-c2ccccc2)oc2cccc(O)c12 [compound 61, 3,5-Dihydroxyflavone]	3.87	
O=c1c(O)c(-c2ccc(O)cc2)oc2ccc(O)cc12 [compound 62, 3,6,4′-Trihydroxyflavone]	4.34	
O=c1c(O)c(-c2ccc(O)c(O)c2)oc2ccccc12 [compound 63, 3,3′,4′-Trihydroxyflavone]	4.34	
Cc1ccc2oc(-c3ccccc3)c(O)c(=O)c2c1 [compound 66, 3-Hydroxy-6-methylflavone]	5.04	
COc1cccc(-c2oc3ccccc3c(=O)c2O)c1OC [compound 71, 3-Hydroxy-2′,3′-dimethoxyflavone]	3.92	
